From patent US20060204443A1, “Methods for tumor treatment using dendrimer conjugates” (The Government of the USA as represented by the Secretary …, priority 2005, published 2006)
Entries after “also recorded” stand apart in the source; their conditions may differ.

Legend:
[1] = tested on: Draining Lymph Nodes (LNs) from the Normal Breast Tissue; test: Dynamic micro-MR mammo-lymphangiography after injection into normal mammary gland (Example 1); type: in vivo, mice; settings: athymic nu/nu mice, 0.15 μmol Gd into the mammary gland; GPDM imaged at 12, 24, 36 min, then PAMAM-G6
Experimental: Mice were anesthetized with 1.15 mg sodium pentobarbital (Dainabot, Osaka, Japan), and then injected with 0.15-0.24 μmol Gd/5-8 μL of the PAMAM-G6 contrast agent into normal mammary glands or mammary tissue surrounding a tumor (peritumorally). Dynamic micro-MR images were obtained using a 1.5-Tesla superconductive magnet unit (Signa LX, General Electric Medical System, Milwaukee, Wis.) with a birdcage type coil of 3 cm diameter fixed by a custom made coil holder. Single and double “breast coils” used for imaging breasts in humans are commercially available, for example, from GE Medical Systems (Milwaukee, Wis.) and are routinely available in outpatient MRI centers. The mice were wrapped with gauze to stabilize their body temperature and were placed at the center of the coils.
In order to evaluate the lymphatic drainage from the normal mammary gland of either Balb/c mice (n=5) or athymic nu/nu mice (n=5), 3D-fast spoiled gradient echo (3D-fastSPGR (efgre3d package; Signa Horizon, GE); repetition time/echo time 19.2/7.2 msec; inversion time 47 msec; 31.2 kHz, flip angle 30°, 4 excitations; 36 slice encoding steps; scan time 4 min 49 seconds) with chemical shift fat-suppression was used 6, 12, 18, 24, 30, 36, 42, and 48 min after injection of the contrast agent. The coronal images were reconstructed with 0.6-mm section thickness every 0.3-mm. The field of view was 8×4 cm and the size of the matrix was 512×256. The slice data were processed into 3D images using the maximum intensity projection (MIP) method with the same window and level (window 3500 and level 2100) (Advantage Windows, General Electric Medical System). After imaging, the mice were sacrificed by carbon dioxide inhalation.
Athymic nu/nu mice (n=4) were anesthetized and injected with 0.15 μmol Gd of GPDM into the mammary gland, and images were taken 12, 24, and 36 min after injection. Following these three images, these mice were subsequently injected with 0.15 μmol Gd of PAMAM-G6 contrast agent in the mammary gland, and images were taken at 12 and 24 min post-injection of the PAMAM-G6 contrast agent (at 48 and 60 min post-injection of GPDM).

[2] = tested on: deep lymphatic system (lymph nodes, thoracic duct); test: Whole-body dynamic 3D-micro-MRL after intracutaneous injection, normal mice (Examples 2, 3); type: in vivo; settings: for Number of Mice in Which the Thoracic Duct was Visualized/Number of Mice Examined: Normal Mice, 0.1 μmolGd intracutaneously
Experimental: The mice were anesthetized with 1.15 mg sodium pentobarbital (Dainabot, Osaka, Japan) by intraperitoneal injection, and then injected intracutaneously with 0.1 μmolGd of PAMAM-G8, DAB-G5, PAMAM-G4, Gadomer-17, or GPDM into four middle phalanges in all four extremities. Dynamic micro-MR images were obtained using a 1.5-Tesla superconductive magnet unit (Signa LX, General Electric Medical System, Milwaukee, Wis.) with a round birdcage type coil of 3 cm diameter fixed by a custom-made coil holder. Four to eight female mice (7 weeks old, 18-21 g body weight) in each group were used and each contrast agent was prepared at least three separate times for these imaging studies. The mice were wrapped with gauze to stabilize their body temperature and were placed at the center of the coils.
A 3D-fast spoiled gradient echo (3D-fastSPGR (efgre3d package; Signa Horizon, GE); repetition time/echo time 28.5/7.9 msec; inversion time 65 msec; 31.2 kHz, flip angle 30°, four excitations; 40 slice-encoding steps; scan time 7 min 36 seconds) with chemical shift fat-suppression was used 10, 20, 30, and 45 min after injection of the contrast agents. The coronal images were reconstructed with 0.6-mm section thickness at every 0.3-mm. The field of view was 6×3 cm and the size of the matrix was 512×256. The intensities of the regions of interest (for example, a whole axillary lymph node, and the liver) were measured, and then the time-intensity curves analyzed. The data were expressed as the axillary lymph node-to-muscle and the axillary lymph node-to-liver ratios. The slice data were processed into 3D images using the MIP method with the same window and level (window 3500 and level 2300) (Advantage Windows, General Electric Medical System). Two board-certified radiologists separately read a set of stereo views of 3D-MRL for all studies, and estimated the visualization of the thoracic duct. After imaging, the mice were sacrificed by carbon dioxide inhalation.
In this example, the PAMAM-G8 contrast agent is compared to GPDM. PAMAM-G8 was prepared as described in Example 2, and GPDM was purchased (Schering AG, Berlin, Germany). Animal models, administration of the contrast agents, and 3D-micro-MRL were as described in Example 2.

[3] = tested on: axillary lymph nodes and their lymphatic vessels; test: Dynamic 3D-MR lymphangiography, effect of contrast agent size (Example 4); type: in vivo, athymic nu/nu mice
Experimental: Mice were anesthetized with 1.15 mg sodium pentobarbital (Dainabot, Osaka, Japan) by intraperitoneal injection. Then 0.15 μmolGd/5 μL of all nano-size contrast agents or 0.45 μmolGd/5 μL of Gd-[DTPA]-dimeglumine were injected into normal mammary glands or mammary tissue surrounding a tumor. Dynamic MR images were obtained using a 1.5-Tesla superconductive magnet unit (Signa LX, General Electric Medical System, Milwaukee, Wis.) with a birdcage type coil of 3 cm diameter fixed by a custom-made coil holder. The mice were wrapped with gauze to conserve their body temperature and were placed at the center of the coils.
In order to evaluate the effect of contrast agent molecular size on the ability to visualize the lymphatics and lymph nodes of athymic nu/nu mice, thirty five non-tumor bearing nu/nu mice were divided into seven groups (n=5). The mice were evaluated with 3D-fast spoiled gradient echo (3D-fastSPGR (efgre3d package; Signa Horizon, GE); repetition time/echo time 19.2/7.2 msec; inversion time 47 msec; bandwidth 31.2 kHz, flip angle 30°, 4 excitations; 36 slice encoding steps; scan time 4 minutes 49 seconds) with chemical shift fat-suppression at 6, 12, 18, 24, 30, and 36 minutes post-injection of each contrast agent. The coronal images were reconstructed with 0.6-mm section thickness every 0.3-mm. The field of view was 8×4 cm and the size of the matrix was 512×256. The slice data were processed into 3D images using the maximum intensity projection (MIP) method with the same window and level (window 3500 and level 2100) (Advantage Windows, General Electric Medical System). The enhancement ratio was calculated by taking the average signal intensity in the axillary lymph node and dividing it by the signal intensity in the adjacent muscle.

[4] = tested on: axillary lymph nodes and their lymphatic vessels; test: as above; type: in vivo, athymic nu/nu mice; settings: triple dose, 3 min post-injection (data not shown)
[5] = Tokumitsu et al. 2000; cited from earlier work
[6] = mouse, in vivo, listed as Gd-DTPA

## CNC[C@H](O)[C@@H](O)[C@H](O)[C@H](O)CO.CNC[C@H](O)[C@@H](O)[C@H](O)[C@H](O)CO.O=C([O-])CN(CCN(CC(=O)[O-])CC(=O)O)CCN(CC(=O)[O-])CC(=O)O.[Gd+3] [GPDM, gadopentetate dimeglumine, reference compound]
[1]
  Visualization of draining lymph nodes and lymphatic vessels (FIG. 5): not well visualized
[2]; Example 2, FIG. 10B
  Image enhancement after 45 minutes: Virtually no image enhancement
[2]; Example 2, normal mice, 10-45 min after injection
  Visualization of deep lymph nodes: did not allow most of the lymph nodes to be visualized even at early times
[2]; Example 3, FIG. 15
  Visualization of deep lymph nodes: not with GPDM
[2]; 10 min
  Number of Mice in Which the Thoracic Duct was Visualized/Number of Mice Examined: 2/5
[2]; 20 min
  Number of Mice in Which the Thoracic Duct was Visualized/Number of Mice Examined: 0/5
[2]; 30 min
  Number of Mice in Which the Thoracic Duct was Visualized/Number of Mice Examined: 0/5
[2]; 45 min
  Number of Mice in Which the Thoracic Duct was Visualized/Number of Mice Examined: 0/5
[3]; 6-36 minutes post-injection into mammary gland
  Visualization of axillary lymph nodes and their lymphatic vessels: failed to opacify either the lymph nodes or the lymphatic vessels
[3]; [6]
  Signal intensity of adjacent muscle in comparison to G6 and G8: significantly higher than those measured with G6 and G8; also recorded: higher signal in the adjacent muscle
  Signal intensity within the axillary lymph nodes in comparison to G6 and G8: lower signal intensities; also recorded: significantly lower signal
[4]
  Contrast between target lymph node and surrounding tissue: did not help to achieve good enough contrast
[5]
  Clearance from the body: clear too rapidly from the body
